From ChEMBL document CHEMBL4813981, “Synthesis and in vitro antibacterial activity of new aminothiazole-oximepiperidone cephalosporins” (2021)
≈ marks a conversion by molar mass, not a printed value.

Assays:
[1] = system: Escherichia coli; assay: Antibacterial activity against ESBLs positive Carbapenem-sensitive Escherichia coli 17-14 assessed as reduction in bacterial growth in the presence of Avibactam; format: functional
[2] = system: Klebsiella pneumoniae; assay: Antibacterial activity against Carbapenem- resistant Klebsiella pneumoniae KR 15-8 assessed as reduction in bacterial growth in the presence of Avibactam; format: functional
[3] = system: Acinetobacter baumannii; assay: Antibacterial activity against Carbapenem- resistant Acinetobacter baumannii 17-8 assessed as reduction in bacterial growth in the presence of Avibactam; format: functional
[4] = system: Acinetobacter baumannii; assay: Ratio of MBC to MIC for Carbapenem- resistant Acinetobacter baumannii 17-11 assessed as reduction in bacterial growth in the presence of Avibactam; format: functional
[5] = system: Klebsiella aerogenes; assay: Ratio of MBC to MIC for Enterobacter aerogenes 17-1 assessed as reduction in bacterial growth in the presence of Avibactam; format: functional
[6] = system: Klebsiella pneumoniae; assay: Ratio of MBC to MIC for ESBLs positive Carbapenem-sensitive Klebsiella pneumoniae 17-12 assessed as reduction in bacterial growth in the presence of Avibactam; format: functional
[7] = system: Pseudomonas aeruginosa; assay: Ratio of MBC to MIC for Pseudomonas aeruginosa ATCC 27853 assessed as reduction in bacterial growth; format: functional
[8] = system: Klebsiella pneumoniae; assay: Antibacterial activity against ESBLs positive Carbapenem-sensitive Klebsiella pneumoniae 17-12 assessed as reduction in bacterial growth
[9] = system: Klebsiella pneumoniae; assay: Bactericidal activity against ESBLs negative Carbapenem-sensitive Klebsiella pneumoniae 17-17 assessed as reduction in bacterial growth in the presence of avibactam; format: functional
[10] = system: Klebsiella pneumoniae; assay: Antibacterial activity against ESBLs positive Carbapenem-sensitive Klebsiella pneumoniae 17-6 assessed as reduction in bacterial growth in the presence of Avibactam; format: functional
[11] = system: Klebsiella pneumoniae; assay: Antibacterial activity against Klebsiella pneumoniae ATCC 700603 assessed as reduction in bacterial growth; format: functional
[12] = system: Enterobacter cloacae; assay: Bactericidal activity against Enterobacter cloacae 17-10 assessed as reduction in bacterial growth; format: functional
[13] = system: Pseudomonas aeruginosa; assay: Bactericidal activity against Carbapenem- resistant Pseudomonas aeruginosa 17-1 assessed as reduction in bacterial growth in the presence of avibactam; format: functional
[14] = system: Enterobacter cloacae; assay: Antibacterial activity against Enterobacter cloacae 17-6 assessed as reduction in bacterial growth in the presence of Avibactam; format: functional
[15] = system: Pseudomonas aeruginosa; assay: Antibacterial activity against Carbapenem- sensitive Pseudomonas aeruginosa 17-9 assessed as reduction in bacterial growth; format: functional
[16] = system: Escherichia coli; assay: Ratio of MBC to MIC for ESBLs negative carbapenem-negative Escherichia coli 17-7 assessed as reduction in bacterial growth in the presence of Avibactam; format: functional
[17] = system: Klebsiella aerogenes; assay: Ratio of MBC to MIC for Enterobacter aerogenes 17-1 assessed as reduction in bacterial growth; format: functional
[18] = system: Klebsiella pneumoniae; assay: Antibacterial activity against Carbapenem- resistant Klebsiella pneumoniae KR 15-5 assessed as reduction in bacterial growth in the presence of Avibactam; format: functional
[19] = system: Klebsiella pneumoniae; assay: Ratio of MBC to MIC for ESBLs positive Carbapenem-sensitive Klebsiella pneumoniae 17-6 assessed as reduction in bacterial growth in the presence of Avibactam; format: functional
[20] = system: Pseudomonas aeruginosa; assay: Antibacterial activity against Carbapenem- sensitive Pseudomonas aeruginosa 17-30 assessed as reduction in bacterial growth; format: functional
[21] = system: Klebsiella pneumoniae; assay: Antibacterial activity against ESBLs positive Carbapenem-sensitive Klebsiella pneumoniae 17-10 assessed as reduction in bacterial growth in the presence of Avibactam; format: functional
[22] = system: Klebsiella pneumoniae; assay: Ratio of MBC to MIC for ESBLs positive Carbapenem-sensitive Klebsiella pneumoniae 17-12 assessed as reduction in bacterial growth; format: functional
[23] = system: Enterobacter cloacae; assay: Ratio of MBC to MIC for Enterobacter cloacae 17-10 assessed as reduction in bacterial growth in the presence of Avibactam; format: functional
[24] = system: Escherichia coli; assay: Bactericidal activity against ESBLs positive carbapenem-sensitive Escherichia coli 17-18 assessed as reduction in bacterial growth in the presence of avibactam; format: functional
[25] = system: Acinetobacter baumannii; assay: Antibacterial activity against Multidrug resistant Acinetobacter baumannii AR 15-3 assessed as reduction in bacterial growth; format: functional
[26] = system: Escherichia coli; assay: Ratio of MBC to MIC for ESBLs positive carbapenem-negative Escherichia coli 17-3 assessed as reduction in bacterial growth in the presence of Avibactam; format: functional
[27] = system: Escherichia coli; assay: Antibacterial activity against Escherichia coli ATCC 35218 assessed as reduction in bacterial growth in the presence of Avibactam; format: functional
[28] = system: Enterobacter cloacae; assay: Antibacterial activity against Enterobacter cloacae 17-7 assessed as reduction in bacterial growth in the presence of Avibactam; format: functional
[29] = system: Escherichia coli; assay: Ratio of MBC to MIC for ESBLs positive carbapenem-negative Escherichia coli 17-10 assessed as reduction in bacterial growth in the presence of Avibactam; format: functional
[30] = system: Escherichia coli; assay: Antibacterial activity against ESBLs negative Carbapenem-sensitive Escherichia coli 17-19 assessed as reduction in bacterial growth in the presence of Avibactam; format: functional
[31] = system: Enterobacter cloacae; assay: Antibacterial activity against Enterobacter cloacae 17-5 assessed as reduction in bacterial growth in the presence of Avibactam; format: functional
[32] = system: Acinetobacter baumannii; assay: Antibacterial activity against Carbapenem- resistant Acinetobacter baumannii 17-9 assessed as reduction in bacterial growth in the presence of Avibactam; format: functional
[33] = system: Enterobacter cloacae; assay: Antibacterial activity against Enterobacter cloacae 17-3 assessed as reduction in bacterial growth
[34] = system: Enterobacter cloacae; assay: Antibacterial activity against Enterobacter cloacae 17-2 assessed as reduction in bacterial growth
[35] = system: Escherichia coli; assay: Antibacterial activity against ESBLs negative Carbapenem-sensitive Escherichia coli 17-19 assessed as reduction in bacterial growth; format: functional
[36] = system: Klebsiella pneumoniae; assay: Antibacterial activity against Carbapenem- resistant Klebsiella pneumoniae KR 15-9 assessed as reduction in bacterial growth in the presence of Avibactam; format: functional
[37] = system: Pseudomonas aeruginosa; assay: Antibacterial activity against Carbapenem- sensitive Pseudomonas aeruginosa 17-30 assessed as reduction in bacterial growth in the presence of Avibactam; format: functional
[38] = system: Enterobacter cloacae; assay: Antibacterial activity against Enterobacter cloacae 17-9 assessed as reduction in bacterial growth in the presence of Avibactam; format: functional
[39] = system: Acinetobacter baumannii; assay: Antibacterial activity against Multidrug resistant Acinetobacter baumannii AR 15-2 assessed as reduction in bacterial growth in the presence of Avibactam; format: functional
[40] = system: Klebsiella pneumoniae; assay: Antibacterial activity against ESBLs positive Carbapenem-sensitive Klebsiella pneumoniae 17-2 assessed as reduction in bacterial growth in the presence of Avibactam; format: functional
[41] = system: Pseudomonas aeruginosa; assay: Antibacterial activity against Carbapenem- sensitive Pseudomonas aeruginosa 17-10 assessed as reduction in bacterial growth in the presence of Avibactam; format: functional
[42] = system: Klebsiella aerogenes; assay: Ratio of MBC to MIC for Enterobacter aerogenes 17-4 assessed as reduction in bacterial growth in the presence of Avibactam; format: functional
[43] = system: Escherichia coli; assay: Ratio of MBC to MIC for ESBLs negative Carbapenem-sensitive Escherichia coli 17-20 assessed as reduction in bacterial growth; format: functional
[44] = system: Klebsiella pneumoniae; assay: Antibacterial activity against Carbapenem- resistant Klebsiella pneumoniae KR 15-6 assessed as reduction in bacterial growth in the presence of Avibactam; format: functional
[45] = system: Klebsiella aerogenes; assay: Bactericidal activity against Enterobacter aerogenes 17-3 assessed as reduction in bacterial growth; format: functional
[46] = system: Enterobacter cloacae; assay: Bactericidal activity against Enterobacter cloacae 17-3 assessed as reduction in bacterial growth; format: functional

SMILES: Nc1nc(/C(=N/OCc2cc(=O)c(O)cn2O)C(=O)N[C@@H]2C(=O)N3C(C(=O)O)=CCS[C@H]23)cs1
- MIC [1]: 0.25 µg/mL
- MIC [2]: 4 µg/mL
- MIC [3]: 16 µg/mL
- Ratio [4]: >8
- Ratio [5]: 2
- Ratio [6]: 1
- Ratio [7]: 16
- MIC [8]: 2 µg/mL (≈ 3.93 µM)
- MBC [9]: 1 µg/mL
- MIC [10]: 0.25 µg/mL
- MIC [11]: 64 µg/mL (≈ 126 µM)
- MBC [12]: > 8 µg/mL
- MBC [13]: 64 µg/mL
- MIC [14]: 1 µg/mL
- MIC [15]: 4 µg/mL (≈ 7.87 µM)
- Ratio [16]: 2
- Ratio [17]: 2
- MIC [18]: 2 µg/mL
- Ratio [19]: 2
- MIC [20]: 1 µg/mL (≈ 1.97 µM)
- MIC [21]: 1 µg/mL
- Ratio [22]: 2
- Ratio [23]: 2
- MBC [24]: 1 µg/mL
- MIC [25]: > 64 µg/mL
- Ratio [26]: 2
- MIC [27]: 0.25 µg/mL
- MIC [28]: 2 µg/mL
- Ratio [29]: 8
- MIC [30]: 0.5 µg/mL
- MIC [31]: 4 µg/mL
- MIC [32]: 16 µg/mL
- MIC [33]: 64 µg/mL (≈ 126 µM)
- MIC [34]: > 64 µg/mL
- MIC [35]: 1 µg/mL (≈ 1.97 µM)
- MIC [36]: 2 µg/mL
- MIC [37]: 0.25 µg/mL
- MIC [38]: 2 µg/mL
- MIC [39]: 16 µg/mL
- MIC [40]: 0.125 µg/mL
- MIC [41]: 2 µg/mL
- Ratio [42]: 1
- Ratio [43]: >8
- MIC [44]: 0.5 µg/mL

SMILES: CC(C)(O/N=C(\C(=O)N[C@@H]1C(=O)N2C(C(=O)[O-])=C(C[n+]3ccccc3)CS[C@H]12)c1csc(N)n1)C(=O)O [CEFTAZIDIME]
- MIC [2]: 4 µg/mL
- MIC [3]: 8 µg/mL
- MIC [8]: 4 µg/mL (≈ 7.32 µM)
- MBC [9]: 0.25 µg/mL
- MIC [10]: 0.5 µg/mL
- MIC [11]: 32 µg/mL (≈ 58.5 µM)
- MBC [12]: 4 µg/mL (≈ 7.32 µM)
- MBC [13]: 16 µg/mL
- MIC [18]: 2 µg/mL
- MBC [24]: 0.5 µg/mL
- MIC [25]: > 64 µg/mL
- MIC [27]: 0.06 µg/mL
- MIC [28]: 2 µg/mL
- MIC [31]: 1 µg/mL
- MIC [32]: 8 µg/mL
- MBC [45]: 1 µg/mL (≈ 1.83 µM)
- MIC [34]: 64 µg/mL (≈ 117 µM)
- MIC [36]: 2 µg/mL
- MIC [39]: 8 µg/mL
- MBC [46]: > 16 µg/mL
- MIC [44]: 1 µg/mL

SMILES: C[C@@H](O)[C@H]1C(=O)N2C(C(=O)O)=C(S[C@@H]3CN[C@H](C(=O)N(C)C)C3)[C@H](C)[C@H]12 [MEROPENEM]
- MIC [15]: 0.25 µg/mL (≈ 0.652 µM)
- MIC [20]: 2 µg/mL (≈ 5.22 µM)
- MIC [35]: < 0.03 µg/mL
